The nature of the series: photoluminescence quantum yield (fraction); solvent given as SMILES.
[1] abbreviates: in O=P(c1ccccc1)(c1ccccc1)c1ccccc1Oc1ccccc1P(=O)(c1ccccc1)c1ccccc1.
The mark [2] stands for this setting: in c1cc(-c2cccc(-n3c4ccccc4c4ccccc43)c2)cc(-n2c3ccccc3c3ccccc32)c1.

For the compound `CCCCCCCCN1c2ccccc2Sc2cc(/C=C/c3ccc(N(c4ccc(/C=C/c5ccc6c(c5)Sc5ccccc5N6CCCCCCCC)cc4)c4ccc(/C=C/c5ccc(/C=C/c6ccc(N(c7ccc(/C=C/c8ccc9c(c8)Sc8ccccc8N9CCCCCCCC)cc7)c7ccc(/C=C/c8ccc9c(c8)Sc8ccccc8N9CCCCCCCC)cc7)cc6)c6nsnc56)cc4)cc3)ccc21`, the photoluminescence quantum yield is, setting by setting: (in C1CCOC1) 0.024; (in CCOC(C)=O) 0.125; (in CN(C)C=O) 0.001; (in Cc1ccccc1) 0.278; (in ClC(Cl)Cl) 0.061; (in ClCCl) 0.003.

The compound `Cc1c(C2=[N+]3C(=Cc4c(C)c5ccccc5n4[B-]3(F)F)c3ccccc32)[nH]c2ccccc12` registered a photoluminescence quantum yield (in C1CCOC1) of 0.04; a photoluminescence quantum yield (in CC#N) of 0.04; a photoluminescence quantum yield (in CCCCCC) of 0.14; a photoluminescence quantum yield (in CO) of 0.03; a photoluminescence quantum yield (in Cc1ccccc1) of 0.14; a photoluminescence quantum yield (in ClCCl) of 0.08.

As to `CCCCn1c2c(-c3ccc(N(c4ccccc4)c4ccccc4)cc3)cc(C#N)cc2c2cc(C#N)cc(-c3ccc(N(c4ccccc4)c4ccccc4)cc3)c21`, the photoluminescence quantum yield (in ClCCl) worked out at 0.6.

Regarding `c1ccc(-c2c3ccccc3c(-c3ccccc3)c3cc4ccccc4cc23)cc1`, the photoluminescence quantum yield (in ClCCl) was 0.97.

The compound `COC(=O)C(Cc1ccc2oc(-c3ccncc3)nc2c1)NC(=O)OC(C)(C)C` (stereo not given) registered a photoluminescence quantum yield (in CC1CCCCC1) of 0.01, a photoluminescence quantum yield (in CC#N) of 0.21 and a photoluminescence quantum yield (in CO) of 0.4.

For the compound `c1cc2ccc1CCCc1cc3c(cc1CCCc1ccc(c4nsnc14)CCC3)CCC2`, the photoluminescence quantum yield reads like this: (in C1CCCCC1) 0.12; (in CC#N) 0.02; (in ClC(Cl)Cl) 0.08.

The compound `O=C(O)c1ccc(-c2cnc(-c3ccc(N(c4ccccc4)c4ccccc4)cc3)s2)cc1` came in with a photoluminescence quantum yield (in CO) of 0.4.

For the compound `C(=C\c1cccc(/C=C/c2c3ccccc3cc3ccccc23)c1)/c1ccncc1`, the photoluminescence quantum yield (in C1CCOC1) came to 0.6.

As for `COc1ccc(/C=C/c2nc(/C=C/c3ccc(N(C)C)cc3)cc(/C=C/c3ccc(N(c4ccccc4)c4ccccc4)cc3)n2)cc1`, for the setting “in ClCCl”, the photoluminescence quantum yield worked out at 0.68.

For `CCCN(c1ccccc1)c1ccc2c(c1)C(CC)(CC)c1cc(/C=C/c3ccc(/C=C(\C#N)C(=O)O)s3)ccc1-2`, the photoluminescence quantum yield turned out to be 0.355 (in C1CCOC1); 0.862 (in C1COCCO1); 0.229 (in CC#N); 0.486 (in CC(C)=O); 0.584 (in CCOC(C)=O); 0.894 (in CN(C)C=O). For the same compound, the photoluminescence quantum yield was found to be 0.611 (in CS(C)=O) and 0.624 (in ClCCl).

Turning to `CN(C)c1ccc(C2=Nc3scc(-c4ccccc4)[n+]3[B-](F)(F)O2)cc1`, the photoluminescence quantum yield is, setting by setting: (in C1CCOC1) 0.75; (in CC#N) 0.08; (in Cc1ccccc1) 0.94; (in ClCCl) 0.89.

Where the note is “in ClCCl”, `C[Si]1(C)c2ccccc2-c2cc3c(cc21)-c1ccccc1[Si]3(C)C` showed a photoluminescence quantum yield of 0.45.

Turning to `CC1=CC(C)=[N+]2C1=Cc1c3ccccc3c(C#Cc3cccs3)n1[B-]2(F)F`, the photoluminescence quantum yield is 0.69 (in CCCCCC); 0.45 (in CCCCCCCCO); 0.55 (in CCOC(C)=O); 0.4 (in CN(C)C=O); 0.44 (in ClCCl).

`COc1ccc(NC(=O)C(C(=O)Nc2ccc(OC)cc2)C(c2cc(F)ccc2O)c2c[nH]c3ccc(OC)cc23)cc1` (stereo not given) showed a photoluminescence quantum yield (in CS(C)=O) of 0.018.

In the case of `Cc1ccc(CN2/C(=C/C=C3\CCCC(/C=C/C4=[N+](Cc5ccc(C)cc5)c5ccccc5C4(C)C)=C3Cl)C(C)(C)c3ccccc32)cc1`, the photoluminescence quantum yield (in CCO) turned out to be 0.132.

Consider `O=CC1=C(c2ccc(-c3cccs3)s2)CCC1`, for which, for the setting “in CCO”, the photoluminescence quantum yield was 0.02.

For the compound `CC(C)(C)c1ccc2c(c1)Sc1cc(C(C)(C)C)ccc1N2c1ccc2c(ccc3nc4ccc5cc(N6c7ccc(C(C)(C)C)cc7Sc7cc(C(C)(C)C)ccc76)ccc5c4nc32)c1`, the photoluminescence quantum yield by setting is: (in C1CCCCC1) 0.11; (in Cc1ccccc1) 0.04.

Consider `c1ccc(-c2cc(-c3ccc(N4c5ccccc5C(c5ccccc5)(c5ccccc5)c5ccccc54)cc3)nc(-c3ccccc3)n2)cc1`, for which the photoluminescence quantum yield under setting [1] was determined as 0.7.

Compound `CC(C)(C)c1ccc(-c2cc(-c3ccc(-c4cc(-c5ccc(C(C)(C)C)cc5)c(C(=O)N5CCOCC5)s4)s3)sc2C(=O)N2CCOCC2)cc1` came in with a photoluminescence quantum yield (in ClCCl) of 0.26.

The compound `[O-][n+]1c(/C=C/C=C/c2ccccc2)nc(N2CCOCC2)c2c1CCCC2` showed a photoluminescence quantum yield (in ClCCl) of 0.06.

On to `COC(=O)CCC1=CC(C#Cc2cccs2)=[N+]2C1=Cc1c(CCC(=O)OC)cc(C#Cc3cccs3)n1[B-]2(F)F`, for which the photoluminescence quantum yield (in ClCCl) amounted to 0.17.

Under “in C1CCCCC1”, `c1cc2c3c(c1)OCCCCCCOc1cccc(c1-c1c4ccccc4c-3c3ccccc13)OCCCCCCO2` yielded a photoluminescence quantum yield of 0.93.

`CCN(CC)c1ccc(-c2nc(Oc3ccc(-c4nc5ccccc5s4)cc3)nc(Oc3ccc(-c4nc5ccccc5s4)cc3)n2)cc1` showed a photoluminescence quantum yield (in CN(C)C=O) of 0.155.

For `Fc1ccc(C#Cc2nc(C#Cc3ccc(F)cc3)c(C#Cc3ccc(F)cc3)c(C#Cc3ccc(F)cc3)c2C#Cc2ccc(F)cc2)cc1`, the photoluminescence quantum yield (in ClCCl) came to 0.47.

Take `CCCCOc1ccc(-c2oc3cc4n(c3c2-c2ccc(OCCCC)cc2)[B-](F)(F)[N+]2=Cc3cc5oc(-c6ccc(OCCCC)cc6)c(-c6ccc(OCCCC)cc6)c5n3[B-](F)(F)[N+]2=C4)cc1`: the photoluminescence quantum yield (in C1CCOC1) amounted to 0.44; the photoluminescence quantum yield (in CN(C)C=O) worked out at 0.32; the photoluminescence quantum yield (in CS(C)=O) was determined as 0.31; the photoluminescence quantum yield (in Cc1ccccc1) was 0.42; the photoluminescence quantum yield (in ClC(Cl)Cl) is 0.43; the photoluminescence quantum yield (in ClCCl) turned out to be 0.43.

`COc1ccc(/C=C/c2nc3ccccc3s2)cc1` yielded a photoluminescence quantum yield (in C1CCCCC1) of 0.005 and a photoluminescence quantum yield (in CO) of 0.001.

Take `OB1c2ccccc2Nc2ccccc21`: the photoluminescence quantum yield (in ClCCl) was 0.03.

Regarding `Cn1c2ccc(S(=O)(=O)O)cc2c(=O)c2cc(S(=O)(=O)O)ccc21`, the photoluminescence quantum yield (in CS(C)=O) stood at 0.64 and the photoluminescence quantum yield (in O) came out at 0.76.

As to `CC1=CC(C)=[N+]2C1=C(c1ccc(-c3ccc(O)cc3)s1)c1c(C)cc(C)n1[B-]2(F)F`, where the note is “in Cc1ccccc1”, the photoluminescence quantum yield is 0.069.

The compound `CCN1C(=CC2=C([O-])C(=Cc3sc4ccccc4[n+]3CC)C2=O)Sc2ccccc21` showed a photoluminescence quantum yield (in CC(C)O) of 0.13.

For the compound `CN(C)c1ccc(C2=Cc3c4ccccc4c4ccccc4[n+]3[B-](F)(F)O2)cc1`, the photoluminescence quantum yield by setting is: (in C1CCOC1) 0.585; (in C1COCCO1) 0.855; (in CC1CCCCC1) 1; (in CC#N) 0.447; (in CCOC(C)=O) 0.655; (in CCOCC) 0.999. In addition, the photoluminescence quantum yield came to 0.323 (in CN(C)C=O), 0.471 (in CO), 0.441 (in COC(C)=O) and 0.811 (in ClC(Cl)Cl).

For the compound `CCN1/C(=C/C=C/C2=[N+](C)c3ccccc3C2(C)C)C(C)(C)c2ccccc21`, the photoluminescence quantum yield (in CS(C)=O) worked out at 0.07.

On to `c1ccc(-c2ccc(-c3cc(-c4ccccn4)nc(-c4ccccn4)c3)cc2)cc1`, for which the photoluminescence quantum yield (in ClCCl) came to 0.18.

In the case of `FC(F)(F)c1ccc(-c2nnc(-c3cc(-c4nnc(-c5ccc(C(F)(F)F)cc5)o4)c(-n4c5ccccc5c5ccccc54)cc3-n3c4ccccc4c4ccccc43)o2)cc1`, the photoluminescence quantum yield (in Cc1ccccc1) was determined as 0.095 and the photoluminescence quantum yield under setting [1] was 0.698.

As for `COc1cc(OC)cc(C2=[O+][B-](F)(F)OC(c3cccs3)=C2)c1`, the photoluminescence quantum yield runs as follows: (in CC#N) 0.002; (in CC(C)=O) 0.01; (in CCCCCC) 0.16; (in Cc1ccccc1) 0.14; (in ClCCl) 0.04.

In turn, `C[C@@]12SC(Cl)=CC1=c1nc(-c3ccc(Cl)cc3)[nH]c1=C1C=C(Cl)S[C@]12C` showed a photoluminescence quantum yield (in CC#N) of 0.009.

In turn, `COc1ccc(-c2c3cc4ccccc4cc3c(-c3ccc(OC)cc3)c3cc4ccccc4cc23)cc1` had a photoluminescence quantum yield (in ClCCl) of 0.09.

For `CC(C)(C)c1ccc2c(c1)c1cc(C(C)(C)C)ccc1n2-c1cc(C(=O)c2ccccn2)cc(-n2c3ccc(C(C)(C)C)cc3c3cc(C(C)(C)C)ccc32)c1`, the photoluminescence quantum yield is, setting by setting: (in Cc1ccccc1) 0.072; under setting [2], 0.96.

In turn, `CC[N+]1(CC)CN2C(=N1)C(C(=O)O)=Cc1cc(OC)ccc12` registered a photoluminescence quantum yield (in O) of 0.509.

For `O=C1C=CC2=Cc3ccccc3B(O)N12`, the photoluminescence quantum yield runs as follows: (in CC#N) 0.97; (in CO) 0.1; (in CS(C)=O) 0.01; (in ClC(Cl)Cl) 0.65.

As for `Cc1ccc(-c2cc(-c3ccc(N(C)C)cc3)c3c(N)nc(N4CCCC4)c(C#N)c3n2)cc1`, the photoluminescence quantum yield by setting is: (in CC#N) 0.095; (in c1ccccc1) 0.083.

Compound `N#Cc1c(-n2c3ccccc3c3ccccc32)c(-n2c3ccc(-c4ccccc4)cc3c3cc(-c4ccccc4)ccc32)c(-n2c3ccccc3c3ccccc32)c(-n2c3ccc(-c4ccccc4)cc3c3cc(-c4ccccc4)ccc32)c1-n1c2ccccc2c2ccccc21` had a photoluminescence quantum yield (in Cc1ccccc1) of 0.81 and a photoluminescence quantum yield under setting [2] of 0.8.

Regarding `O=S1(=O)C2=C(c3ccccc31)C1(c3ccccc32)c2ccccc2-c2sc3ccccc3c21` (stereo not given), for the setting “in ClCCl”, the photoluminescence quantum yield is 0.01.

In turn, `CC(C)(C)c1cc2c3cc(C(C)(C)C)c(-c4cc5cc6c7cccc8cccc(c9cc(C(C)(C)C)cc(c5cc4C(C)(C)C)c96)c87)cc3cc3c4cccc5cccc(c(c1)c23)c54` gave a photoluminescence quantum yield (in CC1CCCCC1) of 0.64.

The values are drawn from the Deep4Chem optical property database.
